The results in this text go back to US20070093460A1, “Methods of using selective 11beta-HSD inhibitors to treat gluocorticoid associated states” (priority 2005, published 2007).

Each structure is given as a SMILES string. Where two headings read alike, the source gives them in different places. A value given as a limit tells only on which side of the number the result lay.

Test [1] concerns the target T1, 11β-HSD1 Reductase (Rattus norvegicus, UniProt P16232). The experiment in a line: 11β-HSD1 reductase assay in rat Leydig cell homogenates.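 Further: rat Leydig cell homogenate incubated 20 min at 37 °C, pH 7.4, with tritiated 11-dehydro-corticosterone and 3 mM NADPH, product measured by HPLC, inhibition from triplicate dose–response curves.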
Test [2] has as its target T2, 11β-HSD1 Dehydrogenase (Rattus norvegicus, UniProt P16232). The experiment in a line: 11β-HSD1 dehydrogenase assay in rat Leydig cell homogenates.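 On all read-outs here: tritiated corticosterone conversion by 11β-HSD1 dehydrogenase in Leydig homogenates with 3 mM NADP at pH 8.4, 37 °C for 10 min, products resolved by HPLC, inhibition relative to uninhibited enzyme.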 Conditions: rat Leydig cell homogenates, 600 nM corticosterone, NADP, corticosteroid series; for IC50: read-out: Leydig Cell 11β-HSD1 Dehydrogenase [S]= 600 nM. It is filed as biochemical. Also on record: Freshly prepared rat Leydig cell homogenates were chosen since they provide a rich and reliable source of both 11β-HSD1 dehydrogenase and reductase; from tissue; host or cells: rat testicular Leydig cells, homogenate.
Protocol: Each enzyme reaction (described below) was stopped by adding 750 μL MeOH. After centrifugation, an aliquot of supernatant was analyzed by HPLC using a DuPont Zorbax C8 column.
11β-HSD1 dehydrogenase was assayed by incubating homogenates (13,000 cells equivalent) with 600 nM [^3H]-B (0.5 μCi) in the presence of 3 mM NADP, 50 mM Tris-HCl; pH 8.4 at 37° C. for 10 minutes in a total volume of 250 μL. 11β-HSD1 reductase was assayed by incubating homogenates (52,000 cells equivalent) with 600 nM [^3H]-11-dehydro-corticosterone in presence of 3 mM NADPH, 50 mM Tris-HCl; pH 7.4 at 37° C. for 20 minutes in a total volume of 250 μL.
Each concentration was tested in triplicate and the dose response curve, showing percentage inhibition versus log concentration of steroid was plotted. The data fitted a log-linear straight line.

A further test deals with T3, 11β-HSD2 (Ovis aries, UniProt P50168).
T3 construct: incubating sheep kidney microsomal fraction (6.5 μg protein) with 50 nM corticosterone; from tissue; host or cells: sheep kidney microsomal fraction
T3 sequence (P50168 1-427): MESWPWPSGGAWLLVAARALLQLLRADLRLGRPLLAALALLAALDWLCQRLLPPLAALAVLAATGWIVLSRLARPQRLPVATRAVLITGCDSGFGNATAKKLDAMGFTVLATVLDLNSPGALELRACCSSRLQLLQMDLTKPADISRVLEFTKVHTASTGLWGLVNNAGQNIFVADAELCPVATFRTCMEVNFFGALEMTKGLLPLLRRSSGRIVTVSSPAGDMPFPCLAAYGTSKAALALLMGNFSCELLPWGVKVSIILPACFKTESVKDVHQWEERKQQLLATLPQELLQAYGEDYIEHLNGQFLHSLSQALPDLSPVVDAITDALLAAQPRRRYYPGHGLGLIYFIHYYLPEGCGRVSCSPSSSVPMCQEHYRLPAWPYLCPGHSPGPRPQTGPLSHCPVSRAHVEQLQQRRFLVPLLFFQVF
The experiment in a line: 11β-HSD2 enzyme activity in sheep kidney microsomes. The test is classed as biochemical. Conditions: 11β-HSD2, sheep kidney microsomes, 50 nM corticosterone, NAD+, aldosterone, cortisol, corticosterone series; for IC50: read-out: Dehydrogenase [S] = 50 nM. An excerpt: The enzymatic reaction was termninated by addition of methanol and synthesis of 11-dehydro-corticosterone was quantitated by HPLC as described above.

In test [3] the target is T1, 11β-HSD1 Reductase. Kind of test: Table 1: inhibition of 11β-HSD1 reductase. It is filed as biochemical. Conditions: Table 1, inhibition in words.
Test [4] addresses T2, 11β-HSD1 Dehydrogenase. The experiment in a line: Table 1: inhibition of 11β-HSD1 dehydrogenase. It is filed as biochemical. Conditions: Table 1, inhibition in words.
Another test deals with T4, 11β-HSD2 Dehydrogenase (Ovis aries, UniProt P50168).
T4 sequence (P50168 1-427): T3 sequence (P50168 1-427)
The experiment in a line: Table 1: inhibition of 11β-HSD2 dehydrogenase. It is filed as biochemical. Conditions: Table 1, inhibition in words.

Setting [5] is: rat Leydig cell homogenates, 600 nM 11-dehydro-corticosterone, NADPH, corticosteroid series.
[6] abbreviates: read-out: Leydig Cell 11β-HSD1 Reductase [S]= 600 nM, rat Leydig cell homogenates, 600 nM 11-dehydro-corticosterone, NADPH, corticosteroid series.

T2 sequence (P16232 whole entry): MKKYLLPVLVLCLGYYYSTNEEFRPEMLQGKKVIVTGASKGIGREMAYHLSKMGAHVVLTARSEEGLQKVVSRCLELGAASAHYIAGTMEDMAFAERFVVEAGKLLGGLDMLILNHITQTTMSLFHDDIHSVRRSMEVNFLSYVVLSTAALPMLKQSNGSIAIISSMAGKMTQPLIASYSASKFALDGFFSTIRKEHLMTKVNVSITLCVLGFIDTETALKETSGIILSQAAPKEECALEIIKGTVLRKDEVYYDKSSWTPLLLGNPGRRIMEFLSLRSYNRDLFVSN
T1 sequence (P16232 whole entry): as above

With `C[C@]12CC[C@@H](O)C[C@@H]1CC[C@@H]1[C@@H]2C(=O)C[C@@]2(C)[C@H]1CC[C@]2(O)C(=O)CO` [3α,5α-TH- Cortisone, 5α-Pregnan-3α,17α,21-triol-11,20-dione], the IC50 against 11β-HSD1 Reductase [1] is 4.3 µM; at 11β-HSD1 Dehydrogenase [2], greater than 100 µM.

For `C[C@]12CC[C@@H](O)C[C@@H]1CC[C@@H]1[C@@H]2[C@@H](O)C[C@@]2(C)[C@H]1CC[C@]2(O)C(=O)CO` [3α,5α-TH-Cortisol, 5α-Pregnan-3α,11β,17α,21-tetrol-20-one], the figures for the IC50 at 11β-HSD2, on 11β-HSD1 Reductase [1] and on 11β-HSD1 Dehydrogenase [2] were 8 µM, greater than 100 µM and 14 µM, respectively. Moreover, on 11β-HSD1 Reductase [1] (setting [5]), the “Leydig Cell 11β-HSD1 Reductase [S]= 600 nM” value was “inactive”. In addition, the “Leydig Cell 11β-HSD1 Dehydrogenase [S]= 600 nM” value on 11β-HSD1 Dehydrogenase [2] is “inactive”.

Consider `C[C@]12CC[C@@H](O)C[C@H]1CC[C@@H]1[C@H]2C(=O)C[C@]2(C)[C@@H](O)CC[C@@H]12` [3α,5α-reduced-11-keto-testosterone], for which the “11β-HSD1 Reductase” value on 11β-HSD1 Reductase [3] is reported as “Selective Inhibitor”. At 11β-HSD1 Dehydrogenase [4], the “11β-HSD1 Dehydrogenase” value is “No Inhibition”.

For `C[C@]12CC[C@@H](O)C[C@H]1CC[C@H]1[C@@H]3CC[C@H](C(=O)CO)[C@@]3(C)CC(=O)[C@@H]12` [3α,5β-TH- 11 -dehydro-corticosterone, 5β-Pregnan-3α,21-diol-11,20-dione], the “Dehydrogenase [S] = 50 nM” value on 11β-HSD2 is “inactive”. Moreover, the IC50 at 11β-HSD2 is greater than 10 µM; at 11β-HSD1 Reductase [1] (setting [6]), greater than 100 µM; on 11β-HSD1 Dehydrogenase [2] it was greater than 100 µM. For the same compound, the “Leydig Cell 11β-HSD1 Reductase [S]= 600 nM” value at 11β-HSD1 Reductase [1] (setting [5]) was “inactive”. Also, the “Leydig Cell 11β-HSD1 Dehydrogenase [S]= 600 nM” value at 11β-HSD1 Dehydrogenase [2] was “inactive”.

With `C[C@]12CC[C@@H](O)C[C@H]1CC[C@@H]1[C@@H]2[C@@H](O)C[C@]2(C=O)[C@@H](C(=O)CO)CC[C@@H]12` [3α,5β-TH-Aldosterone, 5β-Pregnan-3α,11β,21-triol-20-one-18-al], on 11β-HSD2, the “Dehydrogenase [S] = 50 nM” value was “inactive” and the IC50 was greater than 10 µM. Also, the “Leydig Cell 11β-HSD1 Reductase [S]= 600 nM” value at 11β-HSD1 Reductase [1] (setting [5]) is “inactive”. Further, the IC50 on 11β-HSD1 Reductase [1] (setting [6]) is greater than 100 µM. Moreover, on 11β-HSD1 Dehydrogenase [2], the “Leydig Cell 11β-HSD1 Dehydrogenase [S]= 600 nM” value is “inactive” and the IC50 was greater than 100 µM.

`C[C@]12CC[C@@H](O)C[C@H]1CC[C@@H]1[C@@H]2[C@@H](O)C[C@]2(C)[C@@H](C(=O)CO)CC[C@@H]12` [3α,5β-TH-Corticosterone, 5β-Pregnan-3α,11β,21-triol-20-one]: at 11β-HSD2, the “Dehydrogenase [S] = 50 nM” value is “inactive” and the IC50 is greater than 10 µM. In addition, on 11β-HSD1 Reductase [1], the IC50 was greater than 100 µM. The “Leydig Cell 11β-HSD1 Reductase [S]= 600 nM” value on 11β-HSD1 Reductase [1] (setting [5]) was “inactive”. Also, on 11β-HSD1 Dehydrogenase [2], the “Leydig Cell 11β-HSD1 Dehydrogenase [S]= 600 nM” value was “inactive” and the IC50 is greater than 100 µM.

Take `C[C@]12CC[C@@H](O)C[C@H]1CC[C@@H]1[C@@H]2[C@@H](O)C[C@@]2(C)[C@H]1CC[C@]2(O)C(=O)CO` [3α,5β-TH-Cortisol, 5β-Pregnan-3α,11β,17α,21-tetrol-20-one]: at 11β-HSD2, the “Dehydrogenase [S] = 50 nM” value was “inactive” and the IC50 was greater than 10 µM. This compound also yielded an IC50 against 11β-HSD1 Reductase [1] greater than 100 µM. Also, the “Leydig Cell 11β-HSD1 Reductase [S]= 600 nM” value on 11β-HSD1 Reductase [1] (setting [5]) is “inactive”. For the same compound, at 11β-HSD1 Dehydrogenase [2], the “Leydig Cell 11β-HSD1 Dehydrogenase [S]= 600 nM” value is “inactive” and the IC50 was greater than 100 µM.

As to `C[C@]12CC[C@@H](O)C[C@H]1CC[C@@H]1[C@@H]2C(=O)C[C@@]2(C)[C@H]1CC[C@]2(O)C(=O)CO` [3α,5β-TH-Cortisone, 5β-Pregnan-3α, 17α,21-triol-11,20-dione], the IC50 on 11β-HSD1 Reductase [1] was 60 µM; at 11β-HSD1 Dehydrogenase [2] it was greater than 100 µM.

Take `C[C@]12CC[C@@H](O)C[C@H]1CC[C@@H]1[C@H]2[C@@H](O)C[C@]2(C)C(=O)CC[C@H]12` [3α,5β-reduced- 11β-OH- androstenedione]: at 11β-HSD1 Reductase [3], the “11β-HSD1 Reductase” value is given as “No Inhibition”. Also, the “11β-HSD1 Dehydrogenase” value at 11β-HSD1 Dehydrogenase [4] is “Moderate Inhibitor”. Besides, on 11β-HSD2 Dehydrogenase, the “11β-HSD2 Dehydrogenase” value is reported as “Potent Inhibitor (Non-Selective)”.
